Assay [1] has as its target Protein-tyrosine kinase 2-beta (Homo sapiens) (UniProt Q14289). Put plainly: Selectivity interaction (Upstate Kinase Profiler service (Millipore)) EUB0000056c PTK2B. The note with it: at 1 µM.
Assay [2] deals with Cyclin-dependent kinase 2 (Homo sapiens, UniProt P24941). As to conditions: at 10 µM.
The target of assay [3] is T1, Serine/threonine-protein kinase LATS1 (Homo sapiens) (UniProt O95835).
T1 sequence (whole entry): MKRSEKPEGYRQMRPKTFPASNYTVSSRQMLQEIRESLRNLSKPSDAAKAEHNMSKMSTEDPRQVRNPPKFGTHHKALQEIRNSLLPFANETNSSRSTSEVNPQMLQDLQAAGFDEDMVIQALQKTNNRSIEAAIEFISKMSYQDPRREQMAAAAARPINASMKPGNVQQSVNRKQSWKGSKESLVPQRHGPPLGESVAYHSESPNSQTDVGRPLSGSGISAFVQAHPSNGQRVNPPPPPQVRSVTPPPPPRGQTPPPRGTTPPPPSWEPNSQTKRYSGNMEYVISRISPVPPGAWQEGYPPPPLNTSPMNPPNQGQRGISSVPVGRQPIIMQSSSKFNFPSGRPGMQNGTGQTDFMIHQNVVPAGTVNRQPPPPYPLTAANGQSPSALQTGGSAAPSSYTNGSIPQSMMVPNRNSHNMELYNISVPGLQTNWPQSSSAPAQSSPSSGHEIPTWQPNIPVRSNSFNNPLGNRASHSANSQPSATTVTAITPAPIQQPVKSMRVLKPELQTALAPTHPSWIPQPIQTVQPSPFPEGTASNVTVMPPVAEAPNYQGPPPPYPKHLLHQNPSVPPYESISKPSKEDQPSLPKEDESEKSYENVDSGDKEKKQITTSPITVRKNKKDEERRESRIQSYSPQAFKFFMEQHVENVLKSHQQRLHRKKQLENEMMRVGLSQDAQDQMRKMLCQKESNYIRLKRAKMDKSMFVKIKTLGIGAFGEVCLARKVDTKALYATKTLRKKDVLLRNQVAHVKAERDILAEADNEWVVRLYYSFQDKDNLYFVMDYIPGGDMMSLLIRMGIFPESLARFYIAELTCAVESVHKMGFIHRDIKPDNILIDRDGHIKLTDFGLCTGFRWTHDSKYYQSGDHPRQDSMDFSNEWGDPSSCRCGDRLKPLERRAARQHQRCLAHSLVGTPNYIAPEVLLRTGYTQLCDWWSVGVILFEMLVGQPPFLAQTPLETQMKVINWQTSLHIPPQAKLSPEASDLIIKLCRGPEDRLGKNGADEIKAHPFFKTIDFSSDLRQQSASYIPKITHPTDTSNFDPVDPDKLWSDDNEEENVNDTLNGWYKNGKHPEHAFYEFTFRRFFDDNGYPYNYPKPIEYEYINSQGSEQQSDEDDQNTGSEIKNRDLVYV
Put plainly: Selectivity interaction (LanthaScreen Eu Kinase Binding Assay) EUB0001632a LATS1. As to conditions: at 10 µM. For orientation: Time-resolved FRET reads energy transfer from a long-lived donor to a nearby acceptor.

Assay [4] addresses T2, Histone-lysine N-methyltransferase SMYD3 (Homo sapiens) (UniProt Q9H7B4).
T2 sequence (whole entry): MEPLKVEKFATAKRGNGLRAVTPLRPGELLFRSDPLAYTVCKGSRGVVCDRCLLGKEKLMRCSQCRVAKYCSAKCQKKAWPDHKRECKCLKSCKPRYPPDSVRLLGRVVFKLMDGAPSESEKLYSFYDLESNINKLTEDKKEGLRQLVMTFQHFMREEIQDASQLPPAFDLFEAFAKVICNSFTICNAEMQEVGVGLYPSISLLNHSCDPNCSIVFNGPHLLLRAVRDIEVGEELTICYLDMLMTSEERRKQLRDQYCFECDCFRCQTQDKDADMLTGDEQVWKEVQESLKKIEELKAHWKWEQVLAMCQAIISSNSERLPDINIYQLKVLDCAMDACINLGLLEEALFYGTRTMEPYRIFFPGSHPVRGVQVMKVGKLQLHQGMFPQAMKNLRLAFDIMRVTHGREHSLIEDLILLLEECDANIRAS
Put plainly: Selectivity interaction (Methyltransferase screen (radiometric assays, panel of 8 PRMTs, 21 protein lysine methyltransferases, 3 DNA methyltransferases, and one RNA methyltransferase)) EUB0000272b SMYD3.

Assay [5] has as its target Microtubule-associated serine/threonine-protein kinase 1 (Homo sapiens) (UniProt Q9Y2H9). Put plainly: Selectivity interaction (KinomeScan (DiscoverX)) EUB0001619a MAST1. The note with it: at 1 µM.

Microtubule-associated serine/threonine-protein kinase 1 (Homo sapiens), sequence (Q9Y2H9 whole entry, looked up): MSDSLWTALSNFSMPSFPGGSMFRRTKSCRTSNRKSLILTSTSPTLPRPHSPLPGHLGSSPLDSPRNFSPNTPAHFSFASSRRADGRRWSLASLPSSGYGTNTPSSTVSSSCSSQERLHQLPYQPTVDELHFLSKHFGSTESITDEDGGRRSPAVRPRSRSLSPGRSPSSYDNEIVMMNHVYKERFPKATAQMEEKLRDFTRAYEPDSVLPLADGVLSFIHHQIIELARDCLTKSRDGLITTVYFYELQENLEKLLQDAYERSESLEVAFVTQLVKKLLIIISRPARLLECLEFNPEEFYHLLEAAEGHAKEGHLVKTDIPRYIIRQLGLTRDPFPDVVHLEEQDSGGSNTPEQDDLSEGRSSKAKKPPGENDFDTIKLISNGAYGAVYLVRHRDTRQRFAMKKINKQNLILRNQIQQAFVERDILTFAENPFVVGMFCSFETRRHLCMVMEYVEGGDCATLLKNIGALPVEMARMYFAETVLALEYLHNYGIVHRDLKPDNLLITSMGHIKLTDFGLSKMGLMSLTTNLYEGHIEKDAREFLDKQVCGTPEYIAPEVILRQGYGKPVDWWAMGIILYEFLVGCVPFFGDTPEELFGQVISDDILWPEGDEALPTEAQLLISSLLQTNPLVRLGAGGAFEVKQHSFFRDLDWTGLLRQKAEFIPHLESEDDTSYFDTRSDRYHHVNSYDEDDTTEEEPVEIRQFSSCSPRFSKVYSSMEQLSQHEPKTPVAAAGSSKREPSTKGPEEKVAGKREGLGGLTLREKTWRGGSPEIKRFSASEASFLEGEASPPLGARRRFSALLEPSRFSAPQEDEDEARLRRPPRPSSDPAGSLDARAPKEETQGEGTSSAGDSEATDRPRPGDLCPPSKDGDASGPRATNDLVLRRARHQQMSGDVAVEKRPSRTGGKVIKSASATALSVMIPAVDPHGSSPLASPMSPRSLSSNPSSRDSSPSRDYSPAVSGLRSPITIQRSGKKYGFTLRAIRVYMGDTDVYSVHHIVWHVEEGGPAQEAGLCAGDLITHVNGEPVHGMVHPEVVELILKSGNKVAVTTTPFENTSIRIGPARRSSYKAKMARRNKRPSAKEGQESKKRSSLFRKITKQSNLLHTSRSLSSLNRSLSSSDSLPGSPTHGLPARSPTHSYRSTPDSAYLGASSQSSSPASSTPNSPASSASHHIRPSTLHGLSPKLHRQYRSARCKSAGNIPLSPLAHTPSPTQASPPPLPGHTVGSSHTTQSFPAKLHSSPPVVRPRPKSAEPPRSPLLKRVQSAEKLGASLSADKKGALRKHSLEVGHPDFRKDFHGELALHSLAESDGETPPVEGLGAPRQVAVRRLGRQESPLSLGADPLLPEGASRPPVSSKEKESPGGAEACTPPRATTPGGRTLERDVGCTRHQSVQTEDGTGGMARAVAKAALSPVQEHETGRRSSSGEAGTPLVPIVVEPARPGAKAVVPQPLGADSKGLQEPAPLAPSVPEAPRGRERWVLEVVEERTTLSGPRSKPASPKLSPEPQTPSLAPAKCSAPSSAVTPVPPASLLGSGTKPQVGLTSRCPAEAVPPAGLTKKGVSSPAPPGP
Protein-tyrosine kinase 2-beta (Homo sapiens), sequence (Q14289 whole entry, looked up): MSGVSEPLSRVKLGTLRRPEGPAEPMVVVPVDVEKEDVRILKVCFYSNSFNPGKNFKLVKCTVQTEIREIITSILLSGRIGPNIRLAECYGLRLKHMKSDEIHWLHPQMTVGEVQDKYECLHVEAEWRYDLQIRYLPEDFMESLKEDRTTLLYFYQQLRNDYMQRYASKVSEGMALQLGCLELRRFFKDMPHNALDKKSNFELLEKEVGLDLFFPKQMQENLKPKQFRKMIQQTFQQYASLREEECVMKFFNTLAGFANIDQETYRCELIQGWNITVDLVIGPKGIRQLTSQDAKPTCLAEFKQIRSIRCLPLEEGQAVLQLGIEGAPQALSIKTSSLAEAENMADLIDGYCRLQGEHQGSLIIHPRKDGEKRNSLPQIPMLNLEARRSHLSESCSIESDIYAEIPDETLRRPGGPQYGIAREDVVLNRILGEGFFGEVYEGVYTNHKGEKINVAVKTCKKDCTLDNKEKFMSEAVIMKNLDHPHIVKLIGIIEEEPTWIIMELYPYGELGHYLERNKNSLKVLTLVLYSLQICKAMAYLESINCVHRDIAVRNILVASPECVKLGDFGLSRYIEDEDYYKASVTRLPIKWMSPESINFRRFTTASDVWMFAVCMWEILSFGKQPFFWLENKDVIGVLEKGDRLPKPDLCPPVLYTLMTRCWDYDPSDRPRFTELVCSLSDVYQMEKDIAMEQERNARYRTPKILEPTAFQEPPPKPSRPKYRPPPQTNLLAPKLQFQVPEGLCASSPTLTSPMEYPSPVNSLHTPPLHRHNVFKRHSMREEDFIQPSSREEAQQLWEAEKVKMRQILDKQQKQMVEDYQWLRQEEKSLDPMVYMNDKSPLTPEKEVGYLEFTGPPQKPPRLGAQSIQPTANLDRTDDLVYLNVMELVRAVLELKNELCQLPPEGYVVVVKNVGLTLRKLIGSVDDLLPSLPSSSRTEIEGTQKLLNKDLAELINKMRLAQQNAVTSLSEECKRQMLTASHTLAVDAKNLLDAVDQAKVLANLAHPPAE

`Cc1ccc(-c2ccc3c(ccc4sc5c(c43)NC[C@@H](C)NC5=O)n2)cn1`: the % of inhibition in assay [1] was 12%.

Regarding `Cc1cc([C@@H](C)Nc2ccccc2C(=O)O)c2nc(N3CCOCC3)cc(=O)n2c1` [AZD-6482], in assay [2], the % of control was determined as 93%.

Consider `Cn1cc(-n2cnc3c(NCc4nc5cc(Cl)c(Cl)cc5[nH]4)nc(N4CCOCC4)nc32)cn1`, for which, in assay [3], the % of inhibition was -63.1%.

`Cc1cc(C)cc([C@H]2c3cc(C)ccc3NC(=O)CN2C(=O)c2ccc(Br)s2)c1`: the % of activity in assay [4] (at 1 µM) was found to be 97.3%; in assay [4] (at 10 µM), 102%.

On to `N#Cc1cccc(-c2c[nH]c3ncnc(N4CCOCC4)c23)c1`, for which the % of control in assay [5] turned out to be 73%.

(Values after ChEMBL document CHEMBL5465560, “Selectivity Literature for EUbOPEN Chemogenomic Library” (2024).)
